Data from patent US12186467B2, “Cleaning of biological fluid” (GAMBRO LUNDIA AB, priority 2012, dated 2025).
Blank lines part the entries; values can stand above or below the molecule they belong to.

What was measured:
[1] = biological target: T1, bovine serum albumin (BSA) (Bos taurus, UniProt P02769); test: Removal of p-cresol from BSA by repeated addition of water and centrifugation; assay type: binding; settings: pH 8
T1 construct: purchased Sigma-Aldrich
Method: The influence of water addition on the binding affinity of p-cresol to bovine serum albumin was investigated in this example, performed at room temperature. 1 ml of a solution comprising 0.02 mg/ml p-cresol and 40 mg/ml bovine serum albumin (BSA) was centrifuged (Visaspin®) for 20 minutes. 0.5 ml of the solution was removed and analysed.
0.5 ml water (Milli-Q quality) was added to the remaining 0.5 ml solution (p-cresol and BSA) and centrifuged (in Vivaspin®) for another 20 minutes before another 0.5 ml was removed for the analysis.
The previous experiment was repeated at elevated temperature. A 1 ml solution containing 0.02 mg/ml p-cresol and 40 mg/ml bovine serum albumin (BSA), pH 8, was centrifuged (Vivaspin®) at 50° C. for 20 minutes until 0.5 ml was removed and analysed. Then 0.5 ml water (Milli-Q) was added to the remaining 0.5 ml solution comprising p-cresol and BSA, centrifuged for 20 minutes until 0.5 ml was removed for the analysis.

[2] = Precipitation observed in displacer/BSA/p-cresol solutions; assay type: physicochemical
Method: The mixed solutions were centrifuged to remove protein at 5700 rpm for 70 minutes at room temperature before analysis. The pH was adjusted to 7 (physiological pH) by addition of NaOH to the samples. The samples were injected into a HPLC. The measurement of p-cresol by HPLC analysis was performed at room temperature.
The influence of the pH value on the binding affinity of the p-cresol and the binding competitors to the bovine serum albumin (BSA) was investigated. […] The pH was adjusted by adding sodium hydroxide (NaOH) or hydrochloric acid (HCl). The tests were performed with the following displacer substances: sodium salicylate, sodium octanoate and sodium acetylsalicylate. […] At pH 5 the albumin exists in the N form. The results are present in Table 4

T1 sequence (P02769 25-607): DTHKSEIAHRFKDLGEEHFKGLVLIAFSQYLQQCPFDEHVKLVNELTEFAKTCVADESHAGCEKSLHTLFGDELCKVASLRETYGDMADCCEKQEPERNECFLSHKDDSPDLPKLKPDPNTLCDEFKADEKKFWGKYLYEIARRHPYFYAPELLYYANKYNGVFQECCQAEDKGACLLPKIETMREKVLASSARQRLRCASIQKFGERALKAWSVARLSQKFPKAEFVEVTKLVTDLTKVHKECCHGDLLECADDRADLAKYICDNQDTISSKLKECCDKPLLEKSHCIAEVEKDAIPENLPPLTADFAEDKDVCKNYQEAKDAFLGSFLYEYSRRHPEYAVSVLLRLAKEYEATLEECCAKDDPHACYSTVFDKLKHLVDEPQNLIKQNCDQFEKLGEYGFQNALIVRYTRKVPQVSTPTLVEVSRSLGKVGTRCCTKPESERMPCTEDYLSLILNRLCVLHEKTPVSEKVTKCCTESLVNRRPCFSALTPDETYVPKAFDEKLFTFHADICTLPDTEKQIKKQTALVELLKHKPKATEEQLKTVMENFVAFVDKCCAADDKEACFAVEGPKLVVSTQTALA

p-cresol considered unbound ([1]; after addition of 5 ml water, 50° C.): About 100% | added p-cresol removed from the binding sites on BSA ([1]; water addition repeated 16 times, room temperature): ~100% | calculated amount of p-cresol removed ([1]; water addition repeated 16 times, room temperature, 0.02 mg p-cresol added): 0.01989 mg | measured amount of p-cresol ([1]; water addition repeated 20 times, 50° C., more than the added amount): 0.027 mg
SMILES: Cc1ccc(O)cc1 [p-cresol]

SMILES: O=C([O-])c1ccccc1O.[Na+] [sodium salicylate]
precipitation ([2]; sodium salicylate with BSA and p-cresol, pH 4): precipitation occurred

precipitation ([2]; sodium octanoate 100 mg/ml and 200 mg/ml, pH 6): Precipitation occurred
SMILES: CCCCCCCC(=O)[O-].[Na+] [sodium octanoate]
precipitation ([2]; sodium octanoate with BSA and p-cresol, pH 5): precipitation of the solution was observed
